Measurements: patent US11974574B2, “Compositions and related methods for modulating endosymbionts” (Flagship Pioneering Innovations V, Inc., priority 2017, dated 2024)

Columns and labels:
BCR-4 [1] = experiment: BCR-4 PNA leaf perfusion, BCR-4 expression by RT-qPCR; format: in vivo, Acyrthosiphon pisum; conditions: living aphids after 7 days of treatment, relative to actin
Procedure: After 7 days of treatment, RNA was extracted from the remaining aphids in each treatment group. Briefly, the aphid body surface was sterilized by dipping the aphid into a 6% bleach solution for approximately 5 seconds. Aphids were then rinsed in sterile water and total RNA was extracted from each individual aphid using the RNA extraction kit (Qiagen miRNeasy kit) according to manufacturer's instructions. RNA concentrations were measured using a nanodrop nucleic acid quantification. BCR-4 relative expression was measured by RT-qPCR. The primers used were ApBCR-4F ([…]; SEQ ID NO: 107) and ApBCR-4R ([…]; SEQ ID NO: 108). The internal reference gene primers were for Actin (housekeeping gene). The forward sequence was […]; SEQ ID NO: 109 and the reverse sequence was […]; SEQ ID NO: 110. […] RT-qPCR data was analyzed using analytic (Thermo Fisher Scientific, QuantStudio Design and Analysis) software.
At 7 post-treatment, RNA was extracted from live aphids and RT-pPCR was done as described above (see Microinjection Delivery Experimental Design) to quantify expression of BCR-4. […]

[2] = system: Aphids (LSR-1 strain, Acyrthosiphon pisum); experiment: BCR-4 PNA leaf perfusion, aphid development and survival; format: in vivo; conditions: leaf perfusion with 1 uM solution
Procedure: Aphids (LSR-1 strain, Acyrthosiphon pisum) were grown on fava bean plants (Vroma Vicia faba from Johnny's Selected Seeds) in a climate-controlled incubator (16 h light/8 h dark photoperiod; 60±5% RH; 25±2° C.). Prior to being used for aphid rearing, fava bean plants were grown in potting soil at 24° C. with 16 h of light and 8 h of darkness. To limit maternal effects or health differences between plants, 5-10 adults from different plants were distributed among 10 two-week-old plants and allowed to multiply to high density for 5-7 days. For experiments, first and second instar aphids were collected from healthy plants and divided into two different treatment groups: 1) those allowed to feed on leaves perfused with water, and, 2) those allowed to feed on leaves perfused with a BCR-4 PNA solution in water.
For each leaf perfusion, approximately 1 ml of water (negative control) or a 1 uM BCR-4 PNA solution was injected into a fava bean leaf. […] Aphids were monitored daily for survival and dead aphids were removed when they were discovered. In addition, the developmental stage (1st, 2nd, 3rd, 4th, and 5th instar) was determined daily throughout the experiment.
LSR-1 first and second instar aphids were divided into two groups as defined in Leaf Perfusion Experimental Design. Aphids were monitored daily and the number of aphids at each developmental stage was determined. […]

Aphids LSR-1, A. pisum = experiment: BCR-4 PNA microinjection, aphid survival and fecundity; format: in vivo
Procedure: (§1) Microinjection was performed using NanoJet III Auto-Nanoliter Injector with an in-house pulled borosilicate needle (Drummond Scientific; Cat #3-000-203-G/XL). Aphids were transferred using a paint brush to a tubing system connected to vacuum which held them in place during the injection. The injection site was at the ventral thorax of the aphid. The injection solutions were water (negative control) or 321 ng/μl of BCR-4 PNA in water. The injection volume was 20 nl for adult (4th and 5th instar) aphids at a rate of 2 nl/sec. Each treatment group had approximately the same number of individuals injected from each of the collection plants. After injection, aphids were released into a petri dish onto fava bean leaves that had stems in an Eppendorf tube filled with 1 ml water. Survival and fecundity were monitored over the course of the experiment.
(§2) Aphids LSR-1 (which harbor only Buchnera), A. pisum were grown on fava bean plants (Vroma Vicia faba from Johnny's Selected Seeds) in a climate-controlled incubator (16 h light/8 h dark photoperiod; 60±5% RH; 25±2° C.). […]
The number of offspring produced from aphids in each treatment group was also assessed during the experiment and fecundity was represented as the number of offspring produced per adult at each time point assessed. […]

BCR-4 [3] = experiment: BCR-4 PNA microinjection, BCR-4 expression by RT-qPCR (Example 18); format: in vivo, A. pisum; conditions: microinjection 20 nl of 321 ng/μl; 4th and 5th instar; after 7 days; relative to Actin
Procedure: as §1, §2
After 7 days of treatment, RNA was extracted from the remaining aphids in each treatment group. […] RNA concentrations were measured using a nanodrop nucleic acid quantification. BCR-4 relative expression was measured by RT-qPCR. […] RT-qPCR data was analyzed using analytic (Thermo Fisher Scientific, QuantStudio Design and Analysis) software. […]

Buchnera = experiment: BCR-4 PNA leaf perfusion, Buchnera/aphid copies by qPCR; format: in vivo; conditions: dead aphids collected 5 and 6 days post-treatment, water approximately 20
Procedure: After 5 and 6 days of treatment, DNA was extracted from dead aphids from each treatment group. Briefly, the aphid body surface was sterilized by dipping the aphid into a 6% bleach solution for approximately 5 seconds. Aphids were then rinsed in sterile water and DNA was extracted from each individual aphid using a DNA extraction kit (Qiagen, DNeasy kit) according to manufacturer's instructions. DNA concentration was measured using a nanodrop nucleic acid quantification, and Buchnera and aphid DNA copy numbers were measured by qPCR. The primers used for Buchnera were Buch_groES_18F ([…]; SEQ ID NO: 101) and Buch_groES_98R ([…]; SEQ ID NO: 102) (Chong and Moran, 2016 PNAS). The primers used for aphid were ApEF1a 107F ([…]; SEQ ID NO: 103) and ApEF1a 246R ([…]; SEQ ID NO: 104) (Chong and Moran, 2016 PNAS). qPCR was performed using a qPCR amplification ramp of 1.6 degrees C./s and the following conditions: 1) 95° C. for 10 minutes, 2) 95° C. for 15 seconds, 3) 55° C. for 30 seconds, 4) repeat steps 2-3 40×, 5) 95° C. for 15 seconds, 6) 55° C. for 1 minute, 7) ramp change to 0.15 degrees C./s, 8) 95° C. for 1 second. qPCR data was analyzed using analytic (Thermo Fisher Scientific, QuantStudio Design and Analysis) software. […]

YGRKKRRQRRR-CGTACAATAATCTCATGG [BCR-4 PNA]
median transcript levels of BCR-4, fold lower than water (BCR-4 [1]): approximately 3 fold | aphids alive ([2]; day 7, water 53%): 30% | aphids in the 3rd instar stage ([2]; first and second instar LSR-1, day 2 post-treatment, water approximately 19%): 8% | survival versus water-injected aphids (Aphids LSR-1, A. pisum; microinjection 20 nl of 321 ng/μl, 4th and 5th instar): slight decrease in survival | fecundity, average offspring produced per adult (Aphids LSR-1, A. pisum; microinjection, at 3 and 7 days post-treatment, water 5 offspring/adult): 4 offspring/adult | BCR-4 expression, fold higher in water-injected aphids than in treated aphids (BCR-4 [3]): approximately 2 fold | mean ratio Buchnera/aphid copies (Buchnera): approximately 57 Buchnera/aphid copies
